Laboratory results reported in patent US20240207211A1, “COMPOSITION FOR PROMOTING BONE FORMATION OR TREATING BONE DISEASE BY ACTING ON OSTEOBLAST MITOCHONDRIA” (SEOUL NATIONAL UNIVERSITY R&DB FOUNDATION, priority 2021, published 2024).

Key:
Format in all cases: cell-based, mouse
osteoblast mitochondria = experiment: Osteoblast fluorescence imaging of mitochondrial morphology (fission, donut-shaped mitochondria); details: osteoblasts, 5 days differentiation, siRNA 30 nM, plasmid 1 μg/mL, bongkrekic acid 40 μM; for formation of donut-shaped mitochondria (confocal images, FIGS. 1A to 1C) / mitochondrial fission (confocal images, FIGS. 1A to 1C): versus control; for mitochondrial fission (quantitative analysis, Zeiss Zen 3.1, FIGS. 1D and 1E) / number of donut-shaped mitochondria (quantitative analysis, FIGS. 1D and 1E): versus respective control
Method: To confirm changes in the morphology of osteoblast mitochondria, transgenic mice were prepared to express green fluorescent protein (GFP) specifically in the mitochondrial matrix. Specifically, lgs1^CKI-mitoGFP/CKI-mitoGFP knock-in C57BL/6 female mice were provided by Jeremy Nathans (Johns Hopkins University School of Medicine, MD), Col1a1-Cre male mice were provided by the Korea Research Institute of Bioscience and Biotechnology, and Col1a1-Cre was prepared to be expressed in these mice using the 2.3 kb murine Col1a1 promoter. By mating the prepared C57BL/6 female transgenic mouse with the Col1a1-Cre male mouse, newborn transgenic mice (Col1a1-Cre; Igs1^CKI-mito-GFP/+) that conditionally express GFP only in the mitochondria of osteoblasts were prepared. All animal studies were approved by the Seoul National University Institutional Animal Care and Use Committees.
The skull cells of the prepared transgenic mice that express GFP conditionally only in the mitochondria were treated with 0.25% trypsin (Gibco) for 10 minutes, incubated in 2 mg/mL type 2 collagenase (Worthington) for 30 minutes, and in fresh type 2 collagenase for another 60 minutes. The cells separated from the bone tissue were collected by centrifugation at 1300 rpm for 3 minutes, and the cells were placed on serum and centrifuged to remove debris. To separate living osteoblasts that express GFP in mitochondria, they were stained with 7AAD (Bio-Legend) for 10 minutes (only dead cells were stained) and a flow cytometry technique (Fluorescence-activated cell sorting, FACS) was used.
The osteoblasts extracted in Example 1 were induced to be differentiated in a medium composed of alpha MEM (Minimum Essential Media, Hyclone) supplemented with 10% fetal bovine serum (Gibco) and 100 U/mL penicillin-streptomycin (Gibco) for 5 days. Specifically, the differentiation medium is composed of alpha MEM with 50 μg/mL ascorbic acid (Amreasco), 5 mM beta-glycerophosphate (Sigma), 10% fetal bovine serum (Gibco), and 100 U/mL penicillin-streptomycin (Gibco). Osteoblast differentiation was induced for 5 days.
Short interfering RNA (siRNA) that inhibits the expression of the Opa1 (dynamin-like 120 kDa protein) gene, which induces mitochondrial fusion, and the Fis1 (Mitochondrial fission 1 protein) gene, which induces mitochondrial fission (siOpa1, siFis1, respectively) was transfected into 300,000 osteoblasts per 1 mL at 30 nM each at the same time as differentiation induction using Lipofectamine RNAiMAX Reagent (Invitrogen), and to increase mitochondrial fission, the pCMV-Fis1 plasmid (Korea Human Gene Bank) was transfected into 300,000 osteoblasts per mL at 1 μg/mL at the same time as differentiation induction using TransIT®-LT1 Transfection Reagent (Mirus) to overexpress the Fis1 gene. In addition, the osteoblasts prepared above were treated simultaneously with differentiation with Tris solution-based bongkrekic acid (Sigma, B6179, USA) at a concentration of 40 μM. As a control for the siRNA, osteoblasts were prepared by transfecting the control siRNA in substantially the same manner as the siRNA; as a control for the plasmid, osteoblasts were prepared by transfecting the pCMV-SPORT6 empty vector plasmid into which no gene was inserted in substantially the same manner as the pCMV-Fis1 plasmid; and as a control for the bongkrekic acid, osteoblasts treated with 0.01M Tris solution were prepared. The siRNAs were purchased from Bioneer, Korea and transfected using Lipofectamine RNAimax (Invitrogen, USA) according to the manufacturer's instructions, and specific information on the siRNAs is shown in Table 1 below.
The pCMV-Fis1 plasmid containing full-length mouse Fis1 cDNA (ID: mMU002771) was purchased from the Korea Human Gene Bank, and was transfected into osteoblasts using TransIT-LT1 transfection reagent (Mirus Bio, USA) according to the manufacturer's instructions. […]

Alp1 = experiment: qRT-PCR of osteogenic marker Alp1 in osteoblasts; details: 5 days differentiation, siRNA 30 nM, plasmid 1 μg/mL, bongkrekic acid 40 μM, normalized to 18S rRNA, versus respective control
Method: (§1) The osteoblasts extracted in Example 1 were transfected with 30 nM of siOpa1, siFis1, and 1 μg/mL of pCMV-Fis1 plasmids, respectively, in substantially the same manner as in Example 2-1, and separate osteoblasts were treated with 40 μM bongkrekic acid, and additionally, the osteoblasts extracted in Example 1 were transfected with 30 nM siBax, which is an siRNA of Bax (Bcl-2-associated X), and 1 μg/mL pCMV-Bax plasmid (Korea Human Gene Bank, ID: mMU001857), respectively, and differentiation of the osteoblasts was induced for 5 days in a medium consisting of alpha MEM (Minimum Essential Media, Hyclone) supplemented with 10% fetal bovine serum (Gibco) and 100 U/mL of penicillin-streptomycin (Gibco) of Example 2-1. As a control for the siRNA, osteoblasts were prepared by transfecting the control siRNA of Example 2-1 in substantially the same manner as the siRNA; as a control for the plasmid, osteoblasts were prepared by transfecting the pCMV-SPORT6 empty vector plasmid into which no gene was inserted in substantially the same manner as the pCMV-Fis1 plasmid; and as a control for the bongkrekic acid, osteoblasts treated with 0.01M Tris solution were prepared.
(§2) qRT-PCR was performed to evaluate the gene expression level of the osteoblasts that underwent ALP staining in Example 3-2. Total RNA was extracted from the cells using QIAzol Lysis Reagent (Qiagen, Germany) and RNeasy Mini Kit (Qiagen, Germany), and cDNA was prepared using PrimeScript RT Reagent Kit (Takara, Japan) according to the manufacturer's instructions. Quantitative RT-PCR was performed using TB Green Premix Ex Taq II (Takara, Japan) and StepOnePlus Real-Time PCR system (Applied Biosystems, USA). Relative gene expression was determined using standard 2(−ΔΔCt) calculations with normalization to 18S rRNA, and information on the primers used is specifically shown in Table 3 below.

osteoblasts = experiment: Alkaline phosphatase (ALP) staining of differentiation-induced osteoblasts; details: 5 days differentiation, siRNA 30 nM, plasmid 1 μg/mL, bongkrekic acid 40 μM, versus respective control
Method: as §1
To confirm the osteogenic activity of the osteoblasts differentiation-induced in Example 3-1, staining of alkaline phosphatase (ALP), an osteogenic marker, was performed and observed. Specifically, 1 mg of Naphthol AS-MX phosphate (Sigma) was dissolved in 100 μL of N,N-dimethylformamide (Sigma), then 2 mL of 0.1% Fast blue BB salt (Sigma) solution was added and ALP staining was performed at 37° C. for 30 minutes. Osteogenic activity was confirmed by the intensity of staining, and it was evaluated that the darker the staining, the higher the expression of ALP.

Ibsp = experiment: qRT-PCR of osteogenic marker Ibsp in osteoblasts; details: 5 days differentiation, siRNA 30 nM, plasmid 1 μg/mL, bongkrekic acid 40 μM, normalized to 18S rRNA, versus respective control
Method: as §1, §2

Compound	formation of donut-shaped mitochondria (confocal images, FIGS. 1A to 1C) (osteoblast mitochondria)	mitochondrial fission (confocal images, FIGS. 1A to 1C) (osteoblast mitochondria)	mitochondrial fission (quantitative analysis, Zeiss Zen 3.1, FIGS. 1D and 1E) (osteoblast mitochondria)	number of donut-shaped mitochondria (quantitative analysis, FIGS. 1D and 1E) (osteoblast mitochondria)	expression of Alp1 (qRT-PCR) (Alp1)	degree of ALP staining (osteogenic activity) (osteoblasts)	expression of Ibsp (qRT-PCR) (Ibsp)
siOpa1: siRNA inhibiting expression of the Opa1 gene; Bioneer ID 74143-1, SEQ ID NO 1 and 2 (chain 1 GUGUUCACAACGAAACCAAUU; chain 2 UUGGUUUCGUUGUGAACACUU; chemistry not given here)	increased compared to the control	increased compared to the control	significantly increased	significantly increased	significantly increased	stronger compared to the respective controls	significantly increased
siFis1: siRNA inhibiting expression of the Fis1 gene; Bioneer ID 66437-1, SEQ ID NO 3 and 4 (chain 1 CUGAUUGAUAAGGCCAUGAUU; chain 2 UCAUGGCCUUAUCAAUCAGUU; chemistry not given here)	significantly reduced compared to the control	significantly reduced compared to the control	significantly reduced	significantly reduced	significantly decreased	weaker compared to the respective controls	significantly decreased
CO[C@H](C/C=C\C=C\CC/C=C/C[C@H](C)/C=C/C(=C\C(=O)O)CC(=O)O)/C(C)=C\C=C(/C)C(=O)O [bongkrekic acid]	increased compared to the control	increased compared to the control	significantly increased	significantly increased	significantly increased	stronger compared to the respective controls	significantly increased
siBax: siRNA of Bax (Bcl-2-associated X); Bioneer ID 12028-1, SEQ ID NO 5 and 6 (chain 1 GCUGCAGAGGAUGAUUGCUTT; chain 2 AGCAAUCAUCCUCUGCAGCTT; chemistry not given here)	–	–	–	–	–	weaker compared to the respective controls	–
